Entries after “also recorded” stand apart in the source; their conditions may differ.
Tests used:
[1] = Dissolving tests with ERr 731 in ethanol and glycerol; type: physicochemical
Description: a) Dissolving Tests with ERr 731® in Ethanol and Glycerol:
Test A: 200 mg of dry extract in 50 ml of glycerol R:
Test B: 200 mg of dry extract in 50 ml of ethanol 30% R:
Test C: 200 mg of dry extract in 50 ml of ethanol 50% R:
Test D: 200 mg of dry extract in 50 ml of ethanol 86% R: […]

[2] = Pharmacokinetics of ERr 731 ingredients in a subject (plasma LC-MS/MS); type: in vivo, human; settings: 40 mg ERr 731 orally (10 tablets)
Description: Subsequently, 10 ml of blood was taken at various times (as indicated in FIG. 1) and the plasma was obtained by centrifugation.
These plasma samples were processed as follows: 500 μl of plasma were mixed with 25 μl of an internal standard working solution (2.5 ng/μl rhaponticin or rhapontigenin in methanol) and then mixed with 500 μl of isotonic NaCl solution and 2.5 ml of diethyl ether/butanol (9/1; v/v). After shaking and centrifugation (10 minutes at 4600 rpm), about 2 ml of the supernatant were removed and dried under a stream of nitrogen (at 60° C.). The pellet was taken up in 50 μl of methanol. Addition of 200 μl of distilled water was followed by renewed mixing, and 200 μl were pipetted into autosampler tubes (light-protected). 30 μl of the samples were injected for analysis into an LC-MS/MS system (PE Sciex API 3000). Chromatographic separation of the analytes took place on a Phenomenex Polymer X column with a gradient of an ammonium buffer solution and an acetonitrile/methanol mixture as mobile phase.

[3] = pH-dependent solubility of rhaponticin in aqueous solutions; type: physicochemical; settings: acidic pH range (pH 3.4-3.6)
Description: Use is made of this for its isolation. Since, besides other organic acids, the root in particular has a high content of oxalic acid (⅔ in water-soluble and ⅓ in bound form), this must be neutralized during the isolation in order to prevent the pH drifting into the acidic range and thus to inhibit premature precipitation of the rhaponticin. This is achieved by using calcium oxide. The latter is employed as quicklime solution with a pH of 12.4-12.6.

[4] = molecular target: T1, estrogen receptor β (ERβ) (Homo sapiens, UniProt Q92731); test: ERβ/mC3-luciferase transactivation in HEC-1B cells; type: cell-based; settings: 24 hours incubation, FIG. 5
T1 construct: expressed in transfected cells; host or cells: HEC-1B cells (human endometrial adenocarcinoma; no endogenous ERα or ERβ), transient transfection with DOTAP
T1 sequence (Q92731 whole entry): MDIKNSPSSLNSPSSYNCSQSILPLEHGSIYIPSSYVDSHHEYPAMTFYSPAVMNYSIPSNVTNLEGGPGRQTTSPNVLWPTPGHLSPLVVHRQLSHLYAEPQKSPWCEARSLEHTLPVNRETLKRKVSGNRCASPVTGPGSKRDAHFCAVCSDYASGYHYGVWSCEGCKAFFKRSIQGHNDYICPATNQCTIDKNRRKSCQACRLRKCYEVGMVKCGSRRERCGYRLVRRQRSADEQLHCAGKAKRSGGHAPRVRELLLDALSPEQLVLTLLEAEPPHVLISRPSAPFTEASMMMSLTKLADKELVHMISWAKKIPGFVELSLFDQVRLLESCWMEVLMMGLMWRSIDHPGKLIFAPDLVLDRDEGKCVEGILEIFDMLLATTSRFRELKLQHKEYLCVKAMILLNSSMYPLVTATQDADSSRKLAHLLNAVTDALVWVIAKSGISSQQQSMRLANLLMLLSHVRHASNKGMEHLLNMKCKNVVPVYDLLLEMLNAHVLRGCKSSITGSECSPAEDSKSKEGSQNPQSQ
Description: They therefore represent a possible way of investigating, in a human and endometrial context, ligand-dependent effects of substances on the transactivation mechanisms in relation to different receptor subtypes and different estrogen-responsive promoters.
An established ERβ/mC3-luciferase system was employed. For this purpose, HEC-1B cells were applied in 24-well plates with a density of 95 000 cells/well (in Dulbecco's modified Essential Medium (DMEM/F12)). The next day, they were cotransfected with an ERβ-containing construct (hERβ/pSG2) and a triple-ERE-containing promoter/luciferase construct (mC3-Luc/pGL2) (Hillisch et al. Dissecting physiological roles of estrogen receptor alpha and beta with potent selective ligands from structure-based design. Mol Endocrinol. 2004 July; 18:1599-609). The transient transfection took place using DOTAP (N-[1-(2,3-dioleoyloxy)]-N,N,N-trimethylammoniumpropane methyl-sulfate, Roth) as described by the manufacturer.
After 24 hours, the cells were treated with appropriate concentrations of the substances or substance mixtures to be investigated. […] The incubation time was 24 hours. The cells were then lysed. The Luciferase Assay® kit (Promega) was used to determine the luciferase activity on the one hand, and the BCA® kit (Sigma) was used to determine the protein content on the other hand. […]

[5] = Test A: 200 mg of dry extract in 50 ml of glycerol R
[6] = Test B: 200 mg of dry extract in 50 ml of ethanol 30% R
[7] = Test C: 200 mg of dry extract in 50 ml of ethanol 50% R
[8] = Test D: 200 mg of dry extract in 50 ml of ethanol 86% R

SMILES	content dissolved [1, 5]	content dissolved relative to theory [1, 5]	content dissolved [1, 6]	content dissolved relative to theory [1, 6]	content dissolved [1, 7]	content dissolved relative to theory [1, 7]	content dissolved [1, 8]	content dissolved relative to theory [1, 8]	detection in the blood [2]	time of maximum in the blood [2]	solubility in aqueous solutions [3]	activation of ERβ (relative luciferase activity vs DMSO control) [4]
COc1ccc(C=Cc2cc(O)cc(O[C@@H]3O[C@H](CO)[C@@H](O)[C@H](O)[C@H]3O)c2)cc1 [deoxyrhaponticin]	27.1% deoxyrhaponticin	(90.6% of theory)	25.2% deoxyrhaponticin	(84.2% of theory)	29.0% deoxyrhaponticin	(97.0% of theory)	29.5% deoxyrhaponticin	(98.7% of theory)	–	–	–	–
COc1ccc(C=Cc2cc(O)cc(O[C@@H]3O[C@H](CO)[C@@H](O)[C@H](O)[C@H]3O)c2)cc1O [rhaponticin, 3,3′,5-Trihydroxy-4′-methoxystilbene 3-O-β-D-glucopyranoside]	55.1% rhaponticin	(89.0% of theory)	52.2% rhaponticin	(84.3% of theory)	58.8% rhaponticin	(95.0% of theory)	59.8% rhaponticin	(96.6% of theory)	detected in the blood	3 to 4 h	precipitated as yellowish substance	–
COc1ccc(C=Cc2cccc(O)c2)cc1O [deoxyrhapontigenin, 3′,5-Dihydroxy-4′-methoxystilbene]	–	–	–	–	–	–	–	–	–	–	–	activate the ERβ dose-dependently; also recorded: effective only at higher concentrations
